Assay results reported in patent publication US8629275B2, “AHCY hydrolase inhibitors for treatment of hyper homocysteinemia” (Merck Sharp & Dohme Corp., priority 2008, dated 2014).

Experiments:
[1] = mice; Shea et al, Neuromolecular Medicine 2004; cited from earlier work
[2] = molecular target: recombinant expressed human or mouse AHCY enzyme (UniProt P23526); test: In vitro AHCY activity assay (ThioGlo1 fluorescence, hydrolysis of SAH); format: biochemical; details: Example 1 average of n=3, Example 2 n=1
Procedure: In vitro AHCY Activity Assay
The AHCY enzyme assay is based on the principle of fluorescence emission following incubation of a reactive dye with the products of an AHCY catalyzed reaction. The reactive dye (Thioglo1) binds homocysteine through its thiol-containing moiety. The products of the AHCY catalyzed reaction, adenosine and homocysteine, are produced from the hydrolysis of SAH (s-adenosylhomocysteine) through AHCY's hydrolase activity.
The reaction is optimized in 96-, 384-, 1536- and 3456-assay plate formats, with recombinant expressed human or mouse AHCY enzyme. When run under initial velocity conditions, the assay is suitable for IC50 and % inhibition calculations.
• 1) ThioGlo1 (catalog 595501, Calbiochem); 100 mM in DMSO • 2) SAH (catalog A-9384, Sigma); 4.69 mM with 0.06 N HCl • 3) Aristeromycin (catalog A-0928, Sigma); 100 mM in DMSO • 4) NAD (catalog 43410, Sigma); 14.5 mM in water • 5) EDTA in 500 mM pH 8 (catalog BP2482-100, Fisher) • 6) DTT stock 200 mM in water • 7) AHCY enzyme (diluted with 100 mM tris pH7.5) Dilutions Immediately Prior to use: • 1. SAH 750 μM (10×) (dilute with 100 mM Tris pH 7.5) • 2. Aristeromycin (10×) (dilute to 1 mM with 100 mM Tris pH7.5) • 3. ThioGlo1 (10×) (dilute to 100 μM in Tris pH7.5) • 4. AHCY assay buffer (3.3×): 3 μM DTT, 150 μM NAD, 3 mM EDTA Protocol: As per 96-Assay Plate Well • 1. […] Read plate (Ex 380 Em 510)

AHCY = molecular target: T1, AHCY (Homo sapiens, UniProt P23526); test: Cell-based assay of AHCY inhibition (secreted homocysteine); details: secreted homocysteine from HEK293 and/or SH-SY5Y cells, 72 hrs; Example 1 average of n=4, Example 2 n=1
T1 construct: endogenous in cells; host or cells: HEK293 and/or SH-SY5Y
T1 sequence (P23526 2-432 limits assumed): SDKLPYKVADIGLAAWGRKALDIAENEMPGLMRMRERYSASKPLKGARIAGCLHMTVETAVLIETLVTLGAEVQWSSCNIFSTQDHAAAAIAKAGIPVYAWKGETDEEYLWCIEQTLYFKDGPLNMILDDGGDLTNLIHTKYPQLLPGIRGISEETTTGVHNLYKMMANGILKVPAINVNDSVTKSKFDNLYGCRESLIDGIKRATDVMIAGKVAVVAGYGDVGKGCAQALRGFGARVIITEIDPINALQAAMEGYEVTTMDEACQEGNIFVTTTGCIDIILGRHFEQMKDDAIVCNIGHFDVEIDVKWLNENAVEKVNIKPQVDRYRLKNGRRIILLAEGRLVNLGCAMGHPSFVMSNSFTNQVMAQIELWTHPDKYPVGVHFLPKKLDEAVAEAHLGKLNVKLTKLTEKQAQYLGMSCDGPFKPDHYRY
Source text: Cell-Based Assay of AHCY Inhibition
Post treatment collection of the adherent Hek293 and/or SH-SY5Y cells is also made for a viability and proliferation measure. Since the amount of secreted homocysteine is limited by the amount of SAH that is converted to homocysteine in the cells and its subsequent secretion, an EC50 measure and % inhibition relative to DMSO control cells can be made. Since the amount of secreted metabolites such as homocysteine can also be related to the absolute and cellular viability, an MTT (3-(4,5-Dimethylthiazol-2-yl)-2,5-diphenyltetrazolium bromide) measure of proliferation and relative cytotoxicty (as compared to control conditions) may also be made.
The day before compound treatment, plate 20,000 cells (Hek293 or SH-SY5Y) in 96 well cell culture treated plates in 100 μl of cell culture media (DMEM and 10% fetal bovine serum). • 2. Add fresh media plus compound (and DMSO treated controls) for 72 hrs. • 3. Collect conditioned media for measurement of secreted homocysteine and perform viability/proliferation assay on adherent cells. Measure of Secreted Homocysteine: • 1. Add 25 μl conditioned media, standard or control in 96-well assay plate • 2. Add 25 μl internal standard • 3. Add 10 μl reduction solution • 4. […] Detection: Fluorescence: Excitation 385 DM, Emission 515 nm • v. […] ReaDMEMd absorbance at 550 nm and 690 nM. • 6. Express readout as 550 nM-690 nM.

Row | IC50 [2] [nM] | IC50 (AHCY) [nM] | Structure (SMILES) | oxidative damage and cognitive impairment [1]
1 |  |  | Nc1nccc2c1ncn2[C@@H]1O[C@H](CO)[C@@H](O)[C@H]1O [3-deaza-adenosine] | prevent oxidative damage and cognitive impairment
2 | 42 | 1.5 | Nc1ncc(F)c2c1ncn2[C@@H]1CC[C@@H](O)[C@H]1O [Example 1, (1R,2S,3R)-3-(4-amino-7-fluoro-1H-imidazo[4,5-c]pyridin-1-yl)cyclopentane-1,2-diol] | 
3 | 17900 | 28.2 | Nc1ncc(F)c2c1ncn2[C@@H]1C=C[C@@H](O)[C@H]1O [Example 2, (1S, 2R, 5R)-5-(4-amino-7-fluoro-1H-imidazo[4,5-c]pyridin-1-yl)cyclopent-3-ene-1,2-diol] | 
